Laboratory results as given in patent US10206937B2, “Boronic acid derivatives and therapeutic uses thereof” (Qpex Biopharma, Inc., priority 2014, dated 2019).
Read-outs that look alike come from different tables or passages of the source.

Key:
[1] = molecular target: purified class A, C and D enzymes (Escherichia coli, UniProt Q9L5C7); type: biochemical
[2] = molecular target: T1, purified class A, C and D enzymes (UniProt Q48434); type: biochemical; conditions: read-out: Ki (CMY-2, NCF); purified CMY-2; nitrocefin reporter substrate
T1 construct: rows headed: Ki (CMY-2, NCF); other: purified CMY-2; nitrocefin reporter substrate

[3] = molecular target: T2, purified class A, C and D enzymes (UniProt Q6XEC0); type: biochemical; conditions: read-out: Ki (OXA-48, NCF); purified OXA-48; nitrocefin reporter substrate
T2 construct: rows headed: Ki (OXA-48, NCF); other: purified OXA-48; nitrocefin reporter substrate

[4] = molecular target: T3, purified class A, C and D enzymes (UniProt Q9F663); type: biochemical; conditions: read-out: Ki (KPC-2, NCF); purified KPC-2; nitrocefin reporter substrate
T3 construct: rows headed: Ki (KPC-2, NCF); other: purified KPC-2; nitrocefin reporter substrate

[5] = molecular target: T4, NDM-1 (Klebsiella pneumoniae, UniProt C7C422); assay: biochemical
[6] = molecular target: T5, VIM-1 (Pseudomonas aeruginosa, UniProt A0A0F7KYQ8); assay: biochemical; conditions: cleavage of nitrocefin (200 uM) by VIM-1 supernatant
T5 construct: made in house; host or cells: ECM6711 strain carrying pUCP24-VIM-1 plasmid; culture supernatant used unpurified

[7] = molecular target: T4, NDM-1; assay: Inhibition of purified class B carbapenemase NDM-1 (Ki, imipenem substrate); type: biochemical; conditions: NDM-1, substrate imipenem; read-out: Ki NDM-1, Imipenem
[8] = molecular target: T6, purified class A, C and D enzymes (UniProt P0AD64, L31Q/G234S/E235K, species not given); type: biochemical; conditions: read-out: Ki (SHV-12, NCF); purified SHV-12; nitrocefin reporter substrate
T6 construct: Ki (SHV-12, NCF); other: purified SHV-12; nitrocefin reporter substrate
T6 sequence (P0AD64 1-286 L31Q/G234S/E235K): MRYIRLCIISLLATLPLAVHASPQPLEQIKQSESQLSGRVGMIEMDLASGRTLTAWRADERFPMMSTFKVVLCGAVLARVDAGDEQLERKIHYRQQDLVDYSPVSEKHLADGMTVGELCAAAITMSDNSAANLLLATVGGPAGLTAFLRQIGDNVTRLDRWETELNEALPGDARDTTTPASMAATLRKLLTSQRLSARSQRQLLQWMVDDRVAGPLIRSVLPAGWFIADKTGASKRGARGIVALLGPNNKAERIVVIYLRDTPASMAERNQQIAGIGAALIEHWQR

[9] = molecular target: KPC-2 (Klebsiella pneumoniae, UniProt Q9F663); assay: Inhibition of purified class A carbapenemase KPC-2 (Ki, carbapenem substrates); type: biochemical
[10] = molecular target: OXA-48 (Klebsiella pneumoniae, UniProt Q6XEC0); assay: Inhibition of purified class D carbapenemase OXA-48 (Ki, carbapenem substrates); type: biochemical
[11] = molecular target: purified class A, C and D enzymes (Enterobacter cloacae, UniProt P05364); type: biochemical; conditions: purified P99/AmpC of ECL; nitrocefin reporter substrate
[12] = test system: strains of Enterobacteriaceae producing various carbapenemases (class A, D and B; 104 strains); assay: Antibiotics potentiation by Compound 27 (MIC; meropenem, doripenem, ertapenem, cefepime); type: cell-based; conditions: Compound 27 at a fixed concentration of 4 μg/ml
[13] = test system: strains of Enterobacteriaceae producing various carbapenemases (class A, D and B; 169 strains); assay: Meropenem or tebipenem potentiation by Compounds 97 or 62 (MIC); type: cell-based; conditions: Compound 62 at a fixed concentration of 8 μg/ml
Protocol: The largest panel of clinical isolates expressing class A, D and B carbapenemases alone or in combination with other beta-lactamases (169 strains) was used to evaluate carbapenem potentiation activity of Compounds 97 and 62. MIC for meropenem and tebipenem of these strains were determined either alone or in the presence of Compounds 97 or 62, respectively, at a fixed concentration of 8 μg/ml in the growth media.

[14] = Serum stability of prodrugs: hydrolysis by human serum; type: in vitro ADME; conditions: prodrug; for Measured Initial Conc. in Serum: 37 degrees, sampled immediately
Protocol: (§1) Prodrug strategy is one of the ways to achieve or increase oral bioavailability for therapeutic drugs. Compound 62 was used as a template for various ester prodrugs. After a prodrug molecule is absorbed into systemic circulation, it should be hydrolyzed in the blood in order to release the active form. Hydrolysis of several prodrugs by rat and human serum were evaluated.
(§2) For all stability experiments the test compounds were treated with rat or human serum in Eppendorf tubes. Typically, 980 μl of serum was prewarmed at 37 degrees for 2 minutes and then 20 μl of a compound (at 1 mg/ml, 50×) was added to it to get a final concentration of 20 μg/ml and immediately mixed. Duplicate samples were tested. […] After vortexing for 30 seconds, the tube was centrifuged in a microcentrifuge for 10 minutes at 15K rpm. Next, 100 μl of the supernatant was combined with 600 μl of water and injected on LC-MS using 0.1% formic acid in water for mobile phase A and 0.1% formic acid in methanol for mobile phase B on an ACE 5 C18 2.1×100 mm column with a 10 μL it injection. The flow rate and gradient were adjusted as needed to give the desired resolution and run time. The pH of the mobile phase was adjusted if needed to improve the chromatography.
(§3) The time course of both the disappearance of a prodrug and the appearance of the active form of that prodrug is presented in Table 13 and Table 14. The active metabolites for all of the listed prodrugs are corresponding parent drugs

[15] = Serum stability of prodrugs: hydrolysis by rat serum; type: in vitro ADME; conditions: for Measured Initial Conc. in Serum / Conc. at t = 1 hr / Conc. at t = 3 hr: rat serum, prodrug; for Measured Initial Conc. in Serum: 37 degrees, sampled immediately
Protocol: as §1, §2, §3

[16] = cleavage of imipenem (100 uM) by NDM-1, read-out: Ki, Imipenem
[17] = cleavage of biapenem (100 uM) by NDM-1, read-out: Ki, Biapenem
[18] = cleavage of biapenem by KPC-2, read-out: Ki, Biapenem
[19] = cleavage of doripenem by KPC-2, read-out: Ki, Doripenem
[20] = cleavage of imipenem by KPC-2, read-out: Ki, Imipenem
[21] = cleavage of meropenem by KPC-2, read-out: Ki, Meropenem
[22] = cleavage of biapenem by OXA-48, read-out: Ki, Biapenem
[23] = cleavage of doripenem by OXA-48, read-out: Ki, Doripenem
[24] = cleavage of imipenem by OXA-48, read-out: Ki, Imipenem
[25] = cleavage of meropenem by OXA-48, read-out: Ki, Meropenem
[26] = purified CTX-M-14, nitrocefin reporter substrate

T4 sequence (C7C422 29-270, looked up, species assumed): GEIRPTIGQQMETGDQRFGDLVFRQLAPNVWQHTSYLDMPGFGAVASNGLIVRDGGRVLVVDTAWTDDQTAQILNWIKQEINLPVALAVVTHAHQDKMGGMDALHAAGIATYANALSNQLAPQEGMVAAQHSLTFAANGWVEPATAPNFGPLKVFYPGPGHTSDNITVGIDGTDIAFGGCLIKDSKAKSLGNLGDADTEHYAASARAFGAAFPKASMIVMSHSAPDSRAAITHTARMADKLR
OXA-48, sequence (Q6XEC0 23-265, looked up): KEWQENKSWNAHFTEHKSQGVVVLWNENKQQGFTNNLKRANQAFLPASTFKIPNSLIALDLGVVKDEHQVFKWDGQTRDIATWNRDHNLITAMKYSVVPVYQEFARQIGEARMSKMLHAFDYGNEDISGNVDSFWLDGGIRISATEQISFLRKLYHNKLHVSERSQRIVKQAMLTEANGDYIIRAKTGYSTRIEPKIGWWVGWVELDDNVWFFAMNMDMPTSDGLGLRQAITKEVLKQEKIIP
KPC-2, sequence (Q9F663 25-293 limits assumed): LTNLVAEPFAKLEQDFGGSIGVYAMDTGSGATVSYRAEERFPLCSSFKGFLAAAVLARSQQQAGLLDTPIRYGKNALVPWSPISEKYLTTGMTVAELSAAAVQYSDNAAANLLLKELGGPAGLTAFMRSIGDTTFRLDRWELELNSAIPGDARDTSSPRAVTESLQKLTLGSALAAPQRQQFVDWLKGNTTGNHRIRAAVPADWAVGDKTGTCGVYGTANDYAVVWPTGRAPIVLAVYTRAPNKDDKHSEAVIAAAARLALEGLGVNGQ
purified class A, C and D enzymes (Escherichia coli, UniProt Q9L5C7), sequence (Q9L5C7 entry or part of it): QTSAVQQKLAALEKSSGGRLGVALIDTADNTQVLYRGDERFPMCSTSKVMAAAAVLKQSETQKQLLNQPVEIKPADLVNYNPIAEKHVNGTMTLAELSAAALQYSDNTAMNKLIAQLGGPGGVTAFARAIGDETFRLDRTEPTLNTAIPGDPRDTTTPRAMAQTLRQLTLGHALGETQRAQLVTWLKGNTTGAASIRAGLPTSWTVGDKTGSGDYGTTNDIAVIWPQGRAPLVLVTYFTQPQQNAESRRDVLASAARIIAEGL
purified class A, C and D enzymes (Enterobacter cloacae, UniProt P05364), sequence (P05364 21-381): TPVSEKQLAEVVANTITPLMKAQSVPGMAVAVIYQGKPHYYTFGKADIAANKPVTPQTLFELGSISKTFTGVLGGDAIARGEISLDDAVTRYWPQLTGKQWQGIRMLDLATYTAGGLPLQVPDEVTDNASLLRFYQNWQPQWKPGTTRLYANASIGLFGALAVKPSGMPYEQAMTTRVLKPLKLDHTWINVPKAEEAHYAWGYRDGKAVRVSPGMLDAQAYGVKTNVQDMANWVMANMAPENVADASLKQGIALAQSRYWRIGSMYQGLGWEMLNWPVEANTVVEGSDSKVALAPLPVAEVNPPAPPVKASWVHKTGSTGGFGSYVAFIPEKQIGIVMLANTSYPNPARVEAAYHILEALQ

O=C(O)[C@H]1/C(=C/CO)O[C@@H]2CC(=O)N21 [Clavulanic acid]
Ki (CTX-M-14, NCF) [1]: X (key: X: Less than 0.1 μM; Y: 0.1 μM to 1 μM; Z: Greater than 1 μM) | Ki [2]: > 1000 nM | Ki [3]: > 1000 nM | Ki [4]: > 1000 nM

O=C(O)c1cccc2c1OB(O)[C@@H](Sc1nccs1)C2 [Compound 11, (R)-2-hydroxy-3-(thiazol-2-ylthio)-3,4-dihydro-2H-benzo[e][1,2]oxaborinine-8-carboxylic acid]
Ki [5, 16]: > 100 nM | IC50 [6]: ≥ 1000 nM | Ki [7]: > 100 nM | Ki [8]: < 100 nM | Ki [2]: < 100 nM | Ki [3]: < 100 nM

NC(=O)CC1Cc2cccc(C(=O)O)c2OB1O (centres unmarked) [Compound 22, 3-(2-amino-2-oxoethyl)-2-hydroxy-3,4-dihydro-2H-benzo[e][1,2]oxaborinine-8-carboxylic acid]
Ki [8]: < 100 nM | Ki [2]: < 100 nM | Ki [3]: < 100 nM | Ki [4]: < 100 nM

COc1ccc2c(c1C(=O)O)OB(O)[C@@H](Sc1nnc(N)s1)C2 [Compound 27, (R)-3-(5-amino-1,3,4-thiadiazol-2-ylthio)-2-hydroxy-7-methoxy-3,4-dihydro-2H-benzo[e][1,2]oxaborinine-8-carboxylic acid]
Ki [5, 17]: 10 to 100 nM | Ki [5, 16]: 10 to 100 nM | Ki ([5]; cleavage of meropenem (100 uM) by NDM-1, read-out: Ki, Meropenem): < 10 nM | Ki ([5]; cleavage of tebipenem (100 uM) by NDM-1, read-out: Ki, Tebipenem): 10 to 100 nM | IC50 [6]: < 1000 nM | Ki [9, 18]: < 10 nM | Ki [9, 19]: < 10 nM | Ki [9, 20]: 10 to 100 nM | Ki [9, 21]: < 10 nM | Ki ([9]; cleavage of tebipenem by KPC-2, read-out: Ki, Tebipenem): < 10 nM | Ki ([9]; purified KPC-2, substrate biapenem, read-out: Ki KPC-2, Biapenem): 10 to 100 nM | Ki [10, 22]: < 10 nM | Ki [10, 23]: < 10 nM | Ki [10, 24]: < 10 nM | Ki [10, 25]: < 10 nM | Ki ([10]; cleavage of tebipenem by OXA-48, read-out: Ki, Tebipenem): < 10 nM | Ki ([10]; purified OXA-48, substrate biapenem, read-out: Ki OXA-48, Biapenem): 10 to 100 nM | Ki [7]: 10 to 100 nM | Ki (P99/AmpC of ECL, NCF) [11]: Y (0.1 μM to 1 μM) | Ki (CTX-M-14, NCF) [1, 26]: X (Less than 0.1 μM) | Ki [8]: < 100 nM | Ki [3]: < 100 nM | Ki [4]: < 100 nM | antibiotics MIC (meropenem, doripenem, ertapenem, cefepime) [12]: significantly reduced

COc1ccc2c(c1C(=O)O)OB(O)[C@@H](Sc1nncs1)C2 [Compound 62, (3R)-2-hydroxy-7-methoxy-3-(1,3,4-thiadiazol-2-ylsulfanyl)-3,4-dihydro-1,2-benzoxaborinine-8-carboxylic acid]
Ki [5, 17]: 10 to 100 nM | Ki [5, 16]: > 100 nM | IC50 [6]: < 1000 nM | Ki [9, 18]: < 10 nM | Ki [9, 19]: < 10 nM | Ki [9, 20]: 10 to 100 nM | Ki [9, 21]: < 10 nM | Ki ([9]; purified KPC-2, substrate biapenem, numeric value, read-out: Ki KPC-2, Biapenem): 3.9 nM | Ki [10, 22]: < 10 nM | Ki [10, 23]: < 10 nM | Ki [10, 24]: < 10 nM | Ki [10, 25]: < 10 nM | Ki ([10]; purified OXA-48, substrate biapenem, numeric value, read-out: Ki OXA-48, Biapenem): 5.6 nM | Ki [7]: > 100 nM | Ki (P99/AmpC of ECL, NCF) [11]: Y (0.1 μM to 1 μM) | Ki (CTX-M-14, NCF) [1, 26]: X (Less than 0.1 μM) | Ki [8]: < 100 nM | Ki [3]: < 100 nM | Ki [4]: < 100 nM | tebipenem MIC [13]: significantly reduced

COc1ccc2c(c1C(=O)OCOC(=O)C(C)C)OB(O)[C@@H](Sc1nncs1)C2 [Compound 121, 2-methylpropanoyloxymethyl (3R)-2-hydroxy-7-methoxy-3-(1,3,4-thiadiazol-2-ylsulfanyl)-3,4-dihydro-1,2-benzoxaborinine-8-carboxylate]
Measured Initial Conc. in Serum [14]: 51.4 µM | Conc. at t = 1 hr [14]: 38.6 µM | Conc. at t = 3 hr [14]: 24.8 µM | Measured Initial Conc. in Serum [15]: 31.3 µM | Conc. at t = 1 hr [15]: 40.7 µM | Conc. at t = 3 hr [15]: 24.3 µM

COc1ccc2c(c1C(=O)OCOC(=O)OC(C)C)OB(O)[C@@H](Sc1nncs1)C2 [Compound 122, isopropoxycarbonyloxymethyl (3R)-2-hydroxy-7-methoxy-3-(1,3,4-thiadiazol-2-ylsulfanyl)-3,4-dihydro-1,2-benzoxaborinine-8-carboxylate]
Measured Initial Conc. in Serum [14]: 44.3 µM | Conc. at t = 1 hr [14]: 34.1 µM | Conc. at t = 3 hr [14]: 47.1 µM | Measured Initial Conc. in Serum [15]: 37.7 µM | Conc. at t = 1 hr [15]: 26.6 µM | Conc. at t = 3 hr [15]: 39.0 µM

COc1ccc2c(c1C(=O)OCOC(C)=O)OB(O)[C@@H](Sc1nncs1)C2 [Compound 123, acetoxymethyl (3R)-2-hydroxy-7-methoxy-3-(1,3,4-thiadiazol-2-ylsulfanyl)-3,4-dihydro-1,2-benzoxaborinine-8-carboxylate]
Measured Initial Conc. in Serum [14]: 51.7 µM | Conc. at t = 1 hr [14]: 43.4 µM | Conc. at t = 3 hr [14]: 30.7 µM | Measured Initial Conc. in Serum [15]: 51.5 µM | Conc. at t = 1 hr [15]: 26.1 µM | Conc. at t = 3 hr [15]: 8.6 µM | conversion of prodrug to active metabolite ([15]; serum species not given, 4 hour experiment): completely converted to active metabolite

CCOC(=O)OCOC(=O)c1c(OC)ccc2c1OB(O)[C@@H](Sc1nncs1)C2 [Compound 124, ethoxycarbonyloxymethyl (3R)-2-hydroxy-7-methoxy-3-(1,3,4-thiadiazol-2-ylsulfanyl)-3,4-dihydro-1,2-benzoxaborinine-8-carboxylate]
Measured Initial Conc. in Serum [14]: 48.3 µM | Conc. at t = 1 hr [14]: 38.3 µM | Conc. at t = 3 hr [14]: 45.9 µM | Measured Initial Conc. in Serum [15]: 44.9 µM | Conc. at t = 1 hr [15]: 36.8 µM | Conc. at t = 3 hr [15]: 41.2 µM

COc1ccc2c(c1C(=O)OCOC(=O)C(C)(C)C)OB(O)[C@@H](Sc1nncs1)C2 [Compound 125, 2,2-dimethylpropanoyloxymethyl (3R)-2-hydroxy-7-methoxy-3-(1,3,4-thiadiazol-2-ylsulfanyl)-3,4-dihydro-1,2-benzoxaborinine-8-carboxylate]
Measured Initial Conc. in Serum [14]: 41.8 µM | Conc. at t = 1 hr [14]: 27.4 µM | Conc. at t = 3 hr [14]: 41.4 µM | Measured Initial Conc. in Serum [15]: 37.6 µM | Conc. at t = 1 hr [15]: 28.5 µM | Conc. at t = 3 hr [15]: 48.2 µM

C[C@]1(Cn2ccnn2)[C@H](C(=O)O)N2C(=O)C[C@H]2S1(=O)=O [Tazobactam]
Ki [2]: 100 to 1000 nM | Ki [3]: 100 to 1000 nM | Ki [4]: > 1000 nM
